From ChEMBL document CHEMBL1127924, “Synthesis and structure - anti-tumor-promoting activity relationship of monogalactosyl diacylglycerols” (1994)

Columns and labels:
Human gammaherpesvirus 4 [1] = assay: Inhibitory activity against TPA-induced Epstein-Barr virus early antigen (EBV-EA) activation at a concentration of 10 mol ratio/TPA; values are per cent of control
Human gammaherpesvirus 4 [2] = assay: Inhibitory activity against TPA-induced Epstein-Barr virus early antigen (EBV-EA) activation at a concentration of 100 mol ratio/TPA; values are per cent of control
Human gammaherpesvirus 4 [3] = assay: Inhibitory activity against TPA-induced Epstein-Barr virus early antigen (EBV-EA) activation at a concentration of 1000 mol ratio/TPA; type: functional
Human gammaherpesvirus 4 [4] = assay: Inhibitory activity against TPA-induced Epstein-Barr virus early antigen (EBV-EA) activation at a concentration of 500 mol ratio/TPA; type: functional; parameters: scale not given: the % may be the effect or the level left

Row | Compound | EBV-EA activation (% of control) (Human gammaherpesvirus 4 [1]) [%] | EBV-EA activation (% of control) (Human gammaherpesvirus 4 [2]) [%] | EBV-EA activation (% of control) (Human gammaherpesvirus 4 [3]) [%] | Control (Human gammaherpesvirus 4 [4]) [%]
1 | CCCCC/C=C/C/C=C/CCCCCCCC(=O)O[C@H](COC(=O)CCCCCCCCCCCCC)CO[C@@H]1O[C@H](CO)[C@H](O)[C@H](O)[C@H]1O | 100 | 88.2 | 17.1 | 39.6
2 | CCCCCCCCCCCCCC(=O)OC[C@H](CO[C@@H]1O[C@H](CO)[C@H](O)[C@H](O)[C@H]1O)OC(=O)CCCCCCCCCCCCC | 100 | 88.2 | 0 | 15.4
3 | CCCCCCCCC/C=C/C=C/C=C/C=C/C=C/C=C/C(=O)OC[C@H](CO[C@@H]1O[C@H](CO)[C@H](O)[C@H](O)[C@H]1O)OC(=O)CCCCCCCCCCCCC | 100 | 68.9 | 13.8 | 29.7
4 | CCCCCCCCC/C=C/C=C/C=C/C=C/C=C/C(=O)OC[C@H](CO[C@@H]1O[C@H](CO)[C@H](O)[C@H](O)[C@H]1O)OC(=O)/C=C/C=C/C=C/C=C/C=C/CCCCCCCCC | 100 | 89 | 0 | 54.3
5 | CCCCCCCC/C=C/CCCCCCCC(=O)OC[C@H](CO[C@@H]1O[C@H](CO)[C@H](O)[C@H](O)[C@H]1O)OC(=O)/C=C/C=C/C=C/C=C/C=C/CCCCCCCCC | 81.7 | 53.6 | 0 | 0
6 | CCCCC/C=C/C/C=C/CCCCCCCC(=O)O[C@H](COC(=O)CCCCCCC/C=C/CCCCCC)CO[C@@H]1O[C@H](CO)[C@H](O)[C@H](O)[C@H]1O | 100 | 100 | 53.3 | 74.6
7 | CCCCCCCC/C=C/CCCCCCCC(=O)OC[C@H](CO[C@@H]1O[C@H](CO)[C@H](O)[C@H](O)[C@H]1O)OC(=O)/C=C/C=C/C=C/C=C/C=C/C=C/CCCCCCCCC | 88.4 | 68.1 | 0 | 26.4
8 | CCCCCCCCC/C=C/C=C/C=C/C=C/C=C/C(=O)O[C@H](COC(=O)CCCCCCCCCCCCC)CO[C@@H]1O[C@H](CO)[C@H](O)[C@H](O)[C@H]1O | 90.7 | 72.8 | 15.8 | 30.6
9 | CC/C=C/C/C=C/C/C=C/CCCCCCCC(=O)O[C@H](COC(=O)CCCCCCC/C=C/C/C=C/CCCCC)CO[C@@H]1O[C@H](CO)[C@H](O)[C@H](O)[C@H]1O | 84.9 | 64.5 | 8.7 | 22.2
10 | CC/C=C/C/C=C/C/C=C/CCCCCCCC(=O)O[C@H](COC(=O)CCCCCCCCCCCCCCC)CO[C@@H]1O[C@H](CO)[C@H](O)[C@H](O)[C@H]1O | 100 | 92.6 | 19.4 | 57.6
11 | CCCCCCCCCCCCCC(=O)OC[C@@H](CO[C@@H]1O[C@H](CO)[C@H](O)[C@H](O)[C@H]1O)OC(C)=O | 77.4 | 52.9 | 17.4 | 36.8
12 | CCC=CCC=CCC=CCCCCCCCC(=O)O[C@@H](COC(=O)CCCCCCCCCCCCC)CO[C@@H]1O[C@H](CO)[C@H](O)[C@H](O)[C@H]1O | 100 | 73.9 | 0 | 20.2
13 | CCCCCCCCC/C=C/C=C/C=C/C=C/C=C/C(=O)O[C@@H](COC(=O)CCCCCCCCCCCCC)CO[C@@H]1O[C@H](CO)[C@H](O)[C@H](O)[C@H]1O | 100 | 84.1 | 26.1 | 52.8
14 | CCCCCCCC/C=C/CCCCCCCC(=O)O[C@H](COC(=O)C=C/C=C/C=C/C=C/C=C/C=C/CCCCCCCCC)CO[C@@H]1O[C@H](CO)[C@H](O)[C@H](O)[C@H]1O | 83.2 | 62.9 | 0 | 12.8
15 | CCCCCCCC/C=C/CCCCCCCC(=O)O[C@H](COC(=O)CCCCCCCCCCCCC)CO[C@@H]1O[C@H](CO)[C@H](O)[C@H](O)[C@H]1O | 100 | 80.4 | 0 | 16.9
16 | CCCCCCCCC/C=C/C=C/C=C/C=C/C=C/C=C/C(=O)OC[C@H](CO[C@@H]1O[C@H](CO)[C@H](O)[C@H](O)[C@H]1O)OC(=O)/C=C/C=C/C=C/C=C/C=C/C=C/CCCCCCCCC | 86.8 | 64.8 | 0 | 26.3
17 | OC[C@@H](O)CO[C@@H]1O[C@H](CO)[C@H](O)[C@H](O)[C@H]1O | 100 | 66.7 | 0 | 15.8
18 | CCCCCCCC/C=C/CCCCCCCC(=O)OCC(O)CO[C@@H]1O[C@H](CO)[C@H](O)[C@H](O)[C@H]1O (single isomer, unassigned) | 100 | 84.7 | 0 | 0
19 | CCCCCCCCCCCCCC(=O)OCC(O)CO[C@@H]1O[C@H](CO)[C@H](O)[C@H](O)[C@H]1O (single isomer, unassigned) | 90.7 | 65.3 | 0 | 22.5
20 | CCCCC/C=C/C/C=C/CCCCCCCC(=O)OCC(O)CO[C@@H]1O[C@H](CO)[C@H](O)[C@H](O)[C@H]1O (single isomer, unassigned) | 100 | 79.8 | 0 | 24.1
21 | CCCCCCCC/C=C/CCCCCCCC(=O)OCC(CO[C@@H]1O[C@H](CO)[C@H](O)[C@H](O)[C@H]1O)OC(=O)CCCCCCC/C=C/CCCCCCCC (single isomer, unassigned) | 61 | 21.3 | 0 | 11
22 | CCCCCCCCCC=CC=CC=CC=CC=CC=CC(=O)OC(COC(=O)CCCCCCCCCCCCC)CO[C@@H]1O[C@H](CO)[C@H](O)[C@H](O)[C@H]1O (single isomer, unassigned) | 100 | 88.3 | 0 | 64.7
23 | CCCCCCCCC=CCCCCCCCC(=O)OC(COC(=O)C=CC=CC=CC=CC=CCCCCCCCCC)CO[C@@H]1O[C@H](CO)[C@H](O)[C@H](O)[C@H]1O (single isomer, unassigned) | 93.2 | 69.6 | 0 | 18.5
